Results reported in patent US20110105472A1, “Diaminopyrimidines as crop protection agents” (Bayer CropScience AG, priority 2008, published 2011).

Assay: logP by LC-MS, method [b], acidic range pH 2.7
Type: physicochemical
Conditions: pH 2.7

| SMILES | log p |
| --- | --- |
| CC(C)(CF)C(=O)Nc1cccc(Nc2ncc(Br)c(NC3CCC3)n2)c1 [Compound 166] | 2.09[b] |
| O=C(Nc1cccc(Nc2ncc(Br)c(NC3CCC3)n2)c1)c1ccco1 [Compound 167] | 1.94[b] |
| Oc1cccc(Nc2ncc(Br)c(NC3CCC3)n2)c1 [Compound 178] | 1.5[b] |
| O=C(NC1CC1)c1cccc(Nc2ncc(Br)c(NC3CCC3)n2)c1 [Compound 180] | 1.78[b] |
| O=C(NCC(F)(F)F)c1cccc(Nc2ncc(Br)c(NC3CCC3)n2)c1 [Compound 181] | 2.21[b] |
| OCc1cccc(Nc2ncc(Br)c(NC3CCC3)n2)c1 [Compound 185] | 1.44[b] |
| CC(=O)Nc1ccc(Nc2ncc(Br)c(NC3CCC3)n2)cc1Cl [Compound 186] | 1.97[b] |
| CCSc1cccc(Nc2ncc(Cl)c(NC3CCC3)n2)c1 [Compound 188] | 3.15[b] |
| CCNC(=O)c1cccc(Nc2ncc(Br)c(NC3CCC3)n2)c1 [Compound 190] | 1.73[b] |
| O=C(c1ccc(Nc2ncc(Br)c(NC3CCC3)n2)cc1)N1CCOCC1 [Compound 191] | 1.75[b] |
| CNC(=O)c1cccc(Nc2ncc(Br)c(NC3CCC3)n2)c1 [Compound 192] | 1.58[b] |
| CNC(=O)Oc1cccc(Nc2ncc(Br)c(NC3CCC3)n2)c1 [Compound 196] | 1.75[b] |
| O=C(c1ccc(Nc2ncc(Cl)c(NC3CCC3)n2)cc1)N1CCCCC1 [Compound 203] | 2.27[b] |
| O=C1CCCCN1c1cccc(Nc2ncc(Cl)c(NC3CCC3)n2)c1 [Compound 204] | 1.66[b] |
| CC(C)c1cccc(Nc2ncc(Br)c(NC3CCC3)n2)c1 [Compound 205] | 3.21[b] |
| O=C1N(CCCl)CCN1c1cccc(Nc2ncc(Br)c(NC3CCC3)n2)c1 [Compound 206] | 2.19[b] |
| O=C1COCCN1c1cccc(Nc2ncc(Br)c(NC3CCC3)n2)c1 [Compound 210] | 1.53[b] |

The next lines start with the values.

| log p | SMILES |
| --- | --- |
| 1.63[b] | CN1CC(=O)N(c2ccc(Nc3ncc(Br)c(NC4CCC4)n3)cc2)C1=O [Compound 164] |
| 2.16[b] | CC(C)(CCl)C(=O)Nc1ccc(Nc2ncc(Br)c(NC3CCC3)n2)cc1 [Compound 165] |
| 1.99[b] | CC(C)(CF)C(=O)Nc1ccc(Nc2ncc(Br)c(NC3CCC3)n2)cc1 [Compound 171] |
| 3.19[b] | CCC(=O)c1ccc(Nc2ncc(Br)c(NC3CCC3)n2)cc1 [Compound 172] |
| 1.62[b] | O=C1OCCN1c1ccc(Nc2ncc(Br)c(NC3CCC3)n2)cc1 [Compound 173] |
| 1.72[b] | O=C1CCCN1c1ccc(Nc2ncc(Br)c(NC3CCC3)n2)cc1 [Compound 174] |
| 1.13[b] | COCCNCc1ccc(Nc2ncc(Br)c(NC3CCC3)n2)cc1 [Compound 176] |
| 2.09[b] | CC(=O)c1cc(Nc2ncc(Br)c(NC3CCC3)n2)ccc1O [Compound 177] |
| 2.32[b] | CS(=O)(=O)c1ccc(Nc2ncc(Br)c(NC3CCC3)n2)cc1 [Compound 179] |
| 1.5[b] | Oc1ccc(Nc2ncc(Br)c(NC3CCC3)n2)cc1F [Compound 184] |
| 1.24[b] | O=C1NC(=O)C(c2ccc(Nc3ncc(Br)c(NC4CCC4)n3)cc2)N1 (centres unmarked) [Compound 187] |
| 1.9[b] | CCOC(=O)Nc1ccc(Nc2ncc(Br)c(NC3CCC3)n2)cc1 [Compound 195] |
| 4.41[b] | O=C(c1ccc(Nc2ncc(Br)c(NC3CCC3)n2)cc1)C(F)(F)F [Compound 197] |
| 1.58[b] | CC(=O)Nc1cc(Nc2ncc(Br)c(NC3CCC3)n2)ccc1C [Compound 200] |
| 1.59[b] | Cc1cc(Nc2ncc(Br)c(NC3CCC3)n2)ccc1O [Compound 201] |
| 3.41[b] | FC(F)Sc1ccc(Nc2ncc(Br)c(NC3CCC3)n2)cc1 [Compound 202] |
| 1.8[b] | COc1ccc(Nc2ncc(Br)c(NC3CCC3)n2)cc1 [Compound 208] |
| 1.9[b] | CC(=O)N(c1ccc(Nc2ncc(Br)c(NC3CCC3)n2)cc1)C1CC1 [Compound 209] |
